The subject of one assay is MV4-11. The assay can be described thus: MV4-11 (3 Days) EC50. It counts as cell-based.
Assay [1] addresses Recombinant human BRD4(1-477) (Homo sapiens (Human), UniProt O60885). The assay can be described thus: BRD4 TR-FRET biochemical IC50 assay. It counts as binding. The following applies: TR-FRET, tetra-acetylated histone peptide; read-out: BRD4 IC50.

Read-outs that look alike come from different tables or passages of the source.

`Cc1noc(C)c1-c1ccc2c(c1)C(c1ccsc1)(N1CCC[C@@H](O)C1)C(=O)N2` (single isomer, unassigned) [Compound 4.9b]: the EC50 (as a rule, the concentration needed to bring the measured effect to its halfway point) in the assay on MV4-11 turned out to be 39 nM.

Consider `Cc1noc(C)c1-c1ccc2c(c1)C(N)(c1ccccc1)C(=O)N2` (stereo not shown) [Compound 2.2, 3-amino-5-(3,5-dimethylisoxazol-4-yl)-3-phenylindolin-2-one], for which the EC50 with MV4-11 (Homo sapiens, MV4-11, 72 h) came to 283 nM. As for `Cc1noc(C)c1-c1ccc2c(c1)C(N[C@@H](CO)C(C)C)(c1ccccc1)C(=O)N2` (single isomer, unassigned) [Compound 2.11b], the IC50 – broadly, the midpoint of a concentration-inhibition curve – in assay [1] is 150 nM. Moreover, the EC50 with MV4-11 (Homo sapiens, MV4-11, 72 h) came out at 180 nM. In the case of `Cc1noc(C)c1-c1ccc2c(c1)C(c1ccsc1)(N1CCC[C@H](O)C1)C(=O)N2` (single isomer, unassigned) [Compound 4.10a], a half-maximal effect in the assay on MV4-11 (Homo sapiens, MV4-11, 72 h) (EC50) was put at 72 nM.

For `Cc1noc(C)c1-c1ccc2c(c1)C(CCCO)(c1ccccc1)C(=O)N2` (stereo not shown) [Compound 3.2, 5-(3,5-dimethylisoxazol-4-yl)-3-(3-hydroxypropyl)-3-phenylindolin-2-one], in assay [1], the IC50 came to 52 nM. In addition, in the assay with MV4-11 (Homo sapiens, MV4-11, 72 h), the EC50 was 125 nM.

In the case of `Cc1noc(C)c1-c1ccc2c(c1)C(CCCN1CCNCC1)(c1ccccc1)C(=O)N2` (stereo not shown) [Compound 3.8, 5-(3,5-Dimethylisoxazol-4-yl)-3-phenyl-3-(3-(piperazin-1-yl)propyl)indolin-2-one], the IC50 in assay [1] was 51 nM. The EC50 in the assay with MV4-11 (Homo sapiens, MV4-11, 72 h) was 62 nM. Consider `Cc1ccccc1C1(O)C(=O)Nc2ccc(-c3c(C)noc3C)cc21` (stereo not shown) [Compound 1.7, 5-(3,5-dimethylisoxazol-4-yl)-3-hydroxy-3-o-tolylindolin-2-one], for which the IC50 in assay [1] worked out at 570 nM. This molecule also came in with an EC50 in the assay on MV4-11 (Homo sapiens, 72 h) of 1500 nM. On to `Cc1noc(C)c1-c1ccc2c(c1)C(NCCO)(c1ccccc1)C(=O)N2` (stereo not shown) [Compound 2.1, 5-(3,5-dimethylisoxazol-4-yl)-3-(2-hydroxyethylamino)-3-phenylindolin-2-one], for which, in assay [1], the IC50 amounted to 70 nM. The EC50 in the assay with MV4-11 (Homo sapiens, MV4-11, 72 h) was determined as 78 nM. On to `Cc1noc(C)c1-c1ccc2c(c1)C(C1CCCC1)(N1CCN(C)CC1)C(=O)N2` (stereo not shown) [Compound 2.36, 3-cyclopentyl-5-(3,5-dimethylisoxazol-4-yl)-3-(4-methylpiperazin-1-yl)indolin-2-one], for which the response in the assay with MV4-11 (Homo sapiens, MV4-11, 72 h) was half-maximal at 596 nM (EC50). Turning to `Cc1noc(C)c1-c1ccc2c(c1)C(CCCN1CCOCC1)(c1ccccc1)C(=O)N2` (stereo not shown) [Compound 3.6, 5-(3,5-dimethylisoxazol-4-yl)-3-(3-morpholinopropyl)-3-phenylindolin-2-one], the IC50 in assay [1] was found to be 100 nM. This molecule also gave an EC50 in the assay with MV4-11 (Homo sapiens, MV4-11, 72 h) of 270 nM. `COc1ccc(C2(O)C(=O)Nc3ccc(-c4c(C)noc4C)cc32)cc1` (stereo not shown) [Compound 1.9, 5-(3,5-dimethylisoxazol-4-yl)-3-hydroxy-3-(4-methoxyphenyl)indolin-2-one]: in assay [1], the IC50 turned out to be 410 nM. This molecule also yielded an EC50 in the assay with MV4-11 (Homo sapiens, 72 h) of 536 nM.

As for `Cc1noc(C)c1-c1ccc2c(c1)C(O)(c1ccccc1)C(=O)N2` (single isomer, unassigned) [Compound 1.1a, 5-(3,5-dimethylisoxazol-4-yl)-3-hydroxy-3-phenylindolin-2-one], in assay [1], the IC50 came out at 35 nM. In addition, in the assay on MV4-11 (Homo sapiens, 72 h), the EC50 worked out at 58 nM. As to `Cc1noc(C)c1-c1ccc2c(c1)C(NCCO)(C1CCCCC1)C(=O)N2` (stereo not shown) [Compound 2.18, 3-cyclohexyl-5-(3,5-dimethylisoxazol-4-yl)-3-(2-hydroxyethylamino)indolin-2-one], the IC50 in assay [1] came to 85 nM. Also, the EC50 in the assay with MV4-11 (Homo sapiens, MV4-11, 72 h) amounted to 204 nM. For the molecule `Cc1noc(C)c1-c1ccc2c(c1)C(c1ccsc1)(N1CCC[C@H](O)C1)C(=O)N2` (single isomer, unassigned) [Compound 4.10b], the EC50 with MV4-11 was 56 nM. For the molecule `C=CCCC1(O)C(=O)Nc2ccc(-c3c(C)noc3C)cc21` (stereo not shown) [Compound 1.24, 3-(but-3-enyl)-5-(3,5-dimethylisoxazol-4-yl)-3-hydroxyindolin-2-one], the response in the assay with MV4-11 (Homo sapiens, MV4-11, 72 h) was half-maximal at 934 nM (EC50). The molecule `C=CCCCC1(O)C(=O)Nc2ccc(-c3c(C)noc3C)cc21` (stereo not shown) [Compound 1.25, 5-(3,5-dimethylisoxazol-4-yl)-3-hydroxy-3-(pent-4-enyl)indolin-2-one] yielded an EC50 in the assay with MV4-11 (Homo sapiens, MV4-11, 72 h) of 1540 nM. `Cc1noc(C)c1-c1ccc2c(c1)C(OCCO)(C1CCCCC1)C(=O)N2` (stereo not shown) [Compound 1.33, 3-Cyclohexyl-5-(3,5-dimethylisoxazol-4-yl)-3-(2-hydroxyethoxy)indolin-2-one] gave an EC50 in the assay with MV4-11 (Homo sapiens, MV4-11, 72 h) of 307 nM. Turning to `CCOC(=O)CN1CCN(C2(c3ccccc3)C(=O)Nc3ccc(-c4c(C)noc4C)cc32)CC1` (stereo not shown) [Compound 2.47, Ethyl 2-(4-(5-(3,5-dimethylisoxazol-4-yl)-2-oxo-3-phenylindolin-3-yl)piperazin-1-yl)acetate], the IC50 in assay [1] stood at 54 nM. Turning to `Cc1noc(C)c1-c1ccc2c(c1)C(c1ccccc1)(N1CCC[C@@H](N)C1)C(=O)N2` (stereo partly drawn) [Compound 2.45, 3-((R)-3-aminopiperidin-1-yl)-5-(3,5-dimethylisoxazol-4-yl)-3-phenylindolin-2-one], in assay [1], the IC50 came to 26 nM. On the same count and under the same terms, the figure for `COC(=O)[C@@H](Cc1cnc[nH]1)NC1(c2ccccc2)C(=O)Nc2ccc(-c3c(C)noc3C)cc21` (stereo partly drawn) [Compound 2.56, (2R)-Methyl 2-(5-(3,5-dimethylisoxazol-4-yl)-2-oxo-3-phenylindolin-3-ylamino)-3-(1h-imidazol-5-yl)propanoate] is 260 nM; for `CCC1(O)C(=O)Nc2ccc(-c3c(C)noc3C)cc21` (stereo not shown) [Compound 1.20, 5-(3,5-dimethylisoxazol-4-yl)-3-ethyl-3-hydroxyindolin-2-one] it is 2300 nM.

`Cc1noc(C)c1-c1ccc2c(c1)C(c1ccccc1)(N1CCC[C@@H](O)C1)C(=O)N2` (stereo partly drawn) [Compound 2.17, 5-(3,5-dimethylisoxazol-4-yl)-3-((R)-3-hydroxypiperidin-1-yl)-3-phenylindolin-2-one]: in the assay with MV4-11 (Homo sapiens, MV4-11, 72 h), a half-maximal effect (EC50) was put at 363 nM. In other words, the sub-micromolar range.

Regarding `Cc1noc(C)c1-c1ccc2c(c1)C(c1ccccc1)(N1CCC[C@@H]1CO)C(=O)N2` (stereo partly shown) [Compound 2.55, 5-(3,5-Dimethylisoxazol-4-yl)-3-((r)-2-(hydroxymethyl)pyrrolidin-1-yl)-3-phenylindolin-2-one], in assay [1], the IC50 turned out to be 110 nM. In the case of `Cc1noc(C)c1-c1ccc2c(c1)C(NCCO)(c1ccsc1)C(=O)N2` (stereo not shown) [Compound 4.3, 5-(3,5-Dimethylisoxazol-4-yl)-3-(2-hydroxyethylamino)-3-(thiophen-3-yl)indolin-2-one], the IC50 in assay [1] was 49 nM. Consider `C=C(C)CC1(O)C(=O)Nc2ccc(-c3c(C)noc3C)cc21` (stereo not shown) [Compound 1.28, 5-(3,5-dimethylisoxazol-4-yl)-3-hydroxy-2-(2-methylallyl)indolin-2-one], for which the IC50 in assay [1] worked out at 3900 nM.

Regarding `Cc1noc(C)c1-c1ccc2c(c1)C(c1ccsc1)(N1CCCC(O)C1)C(=O)N2` (stereo not shown) [Compound 4.8, 5-(3,5-dimethylisoxazol-4-yl)-3-(3-hydroxypiperidin-1-yl)-3-(thiophen-3-yl)indolin-2-one], a half-maximal response in the assay on MV4-11 (Homo sapiens, MV4-11, 72 h) (EC50) required 42 nM. This lies in the double-digit nanomolar range. As to `COC(=O)[C@@H]1C[C@@H](O)CN1C1(c2ccccc2)C(=O)Nc2ccc(-c3c(C)noc3C)cc21` (single isomer, unassigned) [Compound 2.50b], the half-inhibitory concentration (IC50) in assay [1] is 850 nM. As to `Cc1noc(C)c1-c1ccc2c(c1)C(O)(C(C)(C)C)C(=O)N2` (stereo not shown) [Compound 1.26, 3-tert-butyl-5-(3,5-dimethylisoxazol-4-yl)-3-hydroxyindolin-2-one], the IC50 in assay [1] is 3200 nM.

On to `Cc1noc(C)c1-c1ccc2c(c1)C(c1ccccc1)(N1CCN(CCCO)CC1)C(=O)N2` (stereo not shown) [Compound 2.49, 5-(3,5-Dimethylisoxazol-4-yl)-3-(4-(3-hydroxypropyl)piperazin-1-yl)-3-phenylindolin-2-one], for which, in assay [1], the IC50 was 84 nM.

For `Cc1noc(C)c1-c1ccc2c(c1)C(NCCC(C)C)(C1CCCCC1)C(=O)N2` (stereo not shown) [Compound 2.25, 3-cyclohexyl-5-(3,5-dimethylisoxazol-4-yl)-3-(isopentylamino)indolin-2-one], the IC50 in assay [1] turned out to be 3700 nM. `CC(=O)OC1(c2ccccc2)C(=O)Nc2ccc(-c3c(C)noc3C)cc21` (stereo not shown) [Compound 1.34, 5-(3,5-Dimethylisoxazol-4-yl)-2-oxo-3-phenylindolin-3-yl acetate]: the IC50 in assay [1] worked out at 150 nM. As for `Cc1noc(C)c1-c1ccc2c(c1)C(N[C@H](CO)c1ccccc1)(c1ccccc1)C(=O)N2` (single isomer, unassigned) [Compound 2.8a], the IC50 in assay [1] was found to be 510 nM. In the case of `Cc1noc(C)c1-c1ccc2c(c1)C(N[C@@H](CO)c1ccccc1)(c1ccccc1)C(=O)N2` (single isomer, unassigned) [Compound 2.7a], in assay [1], the IC50 is > 10000 nM.

`CC(=O)CC1(O)C(=O)Nc2ccc(-c3c(C)noc3C)cc21` (stereo not shown) [Compound 4.2, 5-(3,5-dimethylisoxazol-4-yl)-3-hydroxy-3-(2-oxopropyl)indolin-2-one]: in assay [1], the IC50 was found to be 670 nM. Consider `Cc1noc(C)c1-c1ccc2c(c1)C(N)(C1CCCCC1)C(=O)N2` (single isomer, unassigned) [Compound 2.37b, 3-Amino-3-cyclohexyl-5-(3,5-dimethylisoxazol-4-yl)indolin-2-one], for which the IC50 in assay [1] was 1100 nM. Turning to `Cc1noc(C)c1-c1ccc2c(c1)C(c1ccsc1)(N1CCC[C@@H](O)C1)C(=O)N2` (single isomer, unassigned) [Compound 4.9a], it took 54 nM to reach a half-maximal effect in the assay with MV4-11 (Homo sapiens, MV4-11, 72 h) (EC50). On to `Cc1noc(C)c1-c1ccc2c(c1)C(c1ccccc1)(N1CCCC(O)C1)C(=O)N2` (stereo not shown) [Compound 2.15, 5-(3,5-dimethylisoxazol-4-yl)-3-(3-hydroxypiperidin-1-yl)-3-phenylindolin-2-one], for which, in the assay on MV4-11 (Homo sapiens, MV4-11, 72 h), the EC50 came out at 95 nM. `Cc1noc(C)c1-c1ccc2c(c1)C(C1CCCCC1)(N1CCC(O)CC1)C(=O)N2` (stereo not shown) [Compound 2.31, 3-cyclohexyl-5-(3,5-dimethylisoxazol-4-yl)-3-(4-hydroxypiperidin-1-yl)indolin-2-one]: in assay [1], the IC50 is 37 nM. Take `Cc1noc(C)c1-c1ccc2c(c1)[C@@](N)(C1CCCCC1)C(=O)N2` [Compound 2.37a, (S)-3-amino-3-cyclohexyl-5-(3,5-dimethylisoxazol-4-yl)indolin-2-one]: the IC50 in assay [1] amounted to 54 nM.

The molecule `Cc1noc(C)c1-c1ccc2c(c1)C(C1CCCCC1)(N1CCN(C)CC1)C(=O)N2` (stereo not shown) [Compound 2.26, 3-cyclohexyl-5-(3,5-dimethylisoxazol-4-yl)-3-(4-methylpieprazin-1-yl)indolin-2-one] showed an EC50 in the assay with MV4-11 (Homo sapiens, MV4-11, 72 h) of 204 nM.
